The record followed here is patent publication US6720314B1, “Use of a vital dye for facilitating surgical procedures for cataract extraction” (priority 1998, dated 2004).

One data set has as its system anterior lens capsule. The experiment in a line: staining capacity of the dyes (general statement). Particulars: very low amounts of dye.
Data set [1] in a line: toxicity profile of the dyes (general statement).

In the case of `Nc1c(S(=O)(=O)[O-])cc2cc(S(=O)(=O)[O-])ccc2c1N=Nc1ccc(-c2ccc(N=Nc3c(N)c(S(=O)(=O)[O-])cc4cc(S(=O)(=O)[O-])ccc34)c(S(=O)(=O)[O-])c2)cc1.[Na+].[Na+].[Na+].[Na+].[Na+]` [trypan red], in the data set with anterior lens capsule, the staining result is “clearly visible staining at very low amounts”.
Consider `Cc1cc(-c2ccc(/N=N/c3c(S(=O)(=O)O)cc4cc(S(=O)(=O)O)cc(N)c4c3O)c(C)c2)ccc1/N=N/c1c(S(=O)(=O)O)cc2cc(S(=O)(=O)O)cc(N)c2c1O` [trypan blue], for which the staining result in the data set on anterior lens capsule is “clearly visible staining at very low amounts”. In addition, the toxicity profile entry in data set [1] was “extremely advantageous toxicity profile”.
On the same counts, the results for `CCN(CC)c1ccc2nc3cc(C)c(N)cc3[o+]c2c1.[Cl-]` [brilliant crysyl blue] are “clearly visible staining at very low amounts” and “extremely advantageous toxicity profile”.
